Source: paper PMC7508162 (Frontiers in Pharmacology, 2020)

Columns and labels:
[1] = Metabolic stability in human liver microsomes; format: in vitro ADME; details: both sexes; human liver microsomes 0.5 mg/mL; compound 1 μM
Protocol: The experiments were performed by Pharmacelsus, Saarbrücken, Germany (https://www.pharmacelsus.com/services/in-vitro-adme/) using human and mouse liver microsomes (0.5 mg/mL, mixed gender, pooled). Compounds were tested at a concentration of 1 μM. Data points represent means of two separate experiments performed in duplicates.

NTPDase3 = target: T1, NTPDase3 (Homo sapiens, UniProt O75355); test: Malachite green assay for NTPDase3; format: biochemical; design: expressed in transfected cells; host or cells: COS-7 cell membrane preparations; details: ATP 50 µM, recombinant COS-7 cell membrane preparation, read-out: Ki ± SEM
T1 sequence (O75355 1-529): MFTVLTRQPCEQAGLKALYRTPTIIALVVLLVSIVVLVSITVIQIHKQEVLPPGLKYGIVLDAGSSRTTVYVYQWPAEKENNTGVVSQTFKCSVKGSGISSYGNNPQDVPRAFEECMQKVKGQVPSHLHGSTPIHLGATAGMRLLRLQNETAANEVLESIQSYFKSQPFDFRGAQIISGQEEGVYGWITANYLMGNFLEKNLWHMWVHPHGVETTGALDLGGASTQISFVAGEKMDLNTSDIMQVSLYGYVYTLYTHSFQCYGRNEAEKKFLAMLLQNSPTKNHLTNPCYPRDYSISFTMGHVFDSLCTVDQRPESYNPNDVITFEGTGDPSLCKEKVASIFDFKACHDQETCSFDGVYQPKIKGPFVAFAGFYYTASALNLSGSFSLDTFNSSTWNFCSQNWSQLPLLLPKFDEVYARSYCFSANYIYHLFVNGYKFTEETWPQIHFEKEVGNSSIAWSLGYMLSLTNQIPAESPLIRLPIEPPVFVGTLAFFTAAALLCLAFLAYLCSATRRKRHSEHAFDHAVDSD
Protocol: The enzymatic activity assay was determined essentially as previously described ([Cogan et al., 1999]) with a few adaptations. The reaction buffer contained 10 mM HEPES, 2 mM CaCl2, 1 mM MgCl2, pH 7.4 in a final volume of 50 μl in transparent 96-well half area plates. For CD39 (NTPDase1), we made use of human umbilical cord membranes preparations which express high levels of the enzyme. For the other human NTPDase isoenzymes, we had to resort to recombinant expression. Human umbilical cord membrane preparations (250 ng) natively expressing high amounts of CD39, or the respective recombinant COS-7 cell membrane preparations expressing the appropriate NTPDase isoenzyme (ca. 100 ng of protein depending on enzyme activity) ([Sévigny et al., 1997]; [Lecka et al., 2013]) with or without inhibitor were preincubated at 37°C and gentle shaking (Eppendorf Thermomixer comfort at 500 rpm) for 5 min. The amount of enzyme preparation was adjusted to ensure 10–20% of substrate conversion. […] ([Kukulski et al., 2005]). After 15 min of incubation at 37°C with gentle shaking, the reaction was stopped by adding the detection reagents (20 µl malachite green solution, 0.6 mM, and 30 µl ammonium molybdate solution, 20 mM, in sulfuric acid, 1.5 M). The released (inorganic) phosphate was quantified after 20 min of gentle shaking at 25°C by measuring the absorption of the malachite green-phosphomolybdate complex at 600 nm using a BMG PheraStar FS plate reader (BMG Labtech GmbH, Ortenberg, Germany). The corrected absorption was calculated by subtracting the absorption of the negative control samples, which were incubated with denatured enzyme (90°C, 15 min), and the inhibition was calculated as follows:
% Inhibition=(B−T)/B*100% […]
Full concentration-inhibition curves were determined with inhibitor concentrations ranging from 0.1 to 300 µM in the presence of 2% DMSO. Three independent experiments were performed (n = 3) and curves were calculated by the GraphPad Prism 8 software. The Ki value was calculated using the Cheng-Prusoff equation for competitive inhibitors: […]

NPP4 = target: T2, NPP4 (Homo sapiens, UniProt Q9Y6X5); test: NPP4 assay with AP4A as substrate, luciferin-luciferase detection; format: biochemical; details: for inhibition at 10 µM: 10 µM test compound; for Ki: 20 µM AP4A, read-out: Ki ± SEM
T2 construct: 1.4 µg of NPP4 (soluble form expressed in insect cells and purified); made in house; host or cells: Sf9 insect cells
T2 sequence (Q9Y6X5 16-407 limits assumed): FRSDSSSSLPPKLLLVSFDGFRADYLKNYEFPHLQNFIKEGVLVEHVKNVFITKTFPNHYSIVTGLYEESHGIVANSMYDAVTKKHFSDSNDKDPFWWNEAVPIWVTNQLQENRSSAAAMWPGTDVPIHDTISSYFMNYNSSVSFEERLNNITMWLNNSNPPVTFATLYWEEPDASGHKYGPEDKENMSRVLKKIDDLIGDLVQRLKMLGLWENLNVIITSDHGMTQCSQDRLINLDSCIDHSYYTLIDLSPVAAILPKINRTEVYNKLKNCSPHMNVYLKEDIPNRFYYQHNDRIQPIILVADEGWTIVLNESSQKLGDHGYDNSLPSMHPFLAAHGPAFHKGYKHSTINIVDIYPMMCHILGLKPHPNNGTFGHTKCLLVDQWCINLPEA
Protocol: Soluble NPP4 was expressed in Sf9 insect cells as recently described in detail ([Lopez et al., 2020]). Diadenosine tetraphosphate (AP4A) was employed as a substrate which is cleaved by NPP4 to ATP and AMP. The reaction product ATP was quantified by luciferin-luciferase reaction ([Lopez et al., 2020]). A mixture of 1.4 µg of NPP4 (soluble form expressed in insect cells and purified) ([Lopez et al., 2020]), 10 µM of test compound, 2 % DMSO, and 20 µM of AP4A as a substrate were incubated for 60 min at 37°C with gentle shaking. The reaction was terminated by heating at 90°C for 5 min, and after cooling down on ice, 50 µl of D-luciferin dissolved in buffer (300 mM Tris-HCl, 15 mM MgCl2, 100 ng D-luciferin, pH 7.8) and 50 µl of luciferase (50 ng dissolved in H2O) were added. The firefly luciferase reacts with D-luciferin in the presence of ATP produced by NPP4. The resulting luminescence was measured between 10–14 min at 560 nm using a BMG PheraStar FS plate reader (BMG Labtech GmbH, Ortenberg, Germany).

Compound `CCCCNc1nc2c(NC)ncnc2n1[C@@H]1O[C@H](COP(=O)(O)OP(=O)(O)C(Br)(Br)P(=O)(O)O)[C@@H](O)[C@H]1O` [Compound 33, (Dibromo((((((2R,3S,4R,5R)-5-(8-(butylamino)-6-(methylamino)-9H-purin-9-yl)-3,4-dihydroxy-tetrahydrofuran-2-yl)methoxy)(hydroxy)phosphoryl)oxy)-(hydroxy)phosphoryl)methyl)-phosphonic Acid] has a half-life at 1 μM [1] of less than 1 min, a Ki (NTPDase3) of 7.8 ± 1.34 µM and an inhibition at 10 µM (NPP4) of 4%. The Ki (NPP4) was greater than 10 µM.
With `CCCCSc1nc2c(N)ncnc2n1[C@@H]1O[C@H](COP(=O)(O)OP(=O)(O)C(Br)(Br)P(=O)(O)O)[C@@H](O)[C@H]1O` [Compound 31, (((((((2R,3S,4R,5R)-5-(6-Amino-8-(butylthio)-9H-purin-9-yl)-3,4-dihydroxytetrahydrofuran-2-yl)methoxy)(hydroxy)-phosphoryl)oxy)(hydroxy)phosphoryl)dibromomethyl)-phosphonic Acid] the half-life at 1 μM [1] was less than 1 min, the Ki (NTPDase3) was 1.54 ± 0.34 µM and the inhibition at 10 µM (NPP4) was 2%. The Ki (NPP4) was greater than 10 µM.
In the case of `CCN(CC)c1ncnc2c1ncn2[C@@H]1O[C@H](COP(=O)(O)OP(=O)(O)C(Br)(Br)P(=O)(O)O)[C@@H](O)[C@H]1O` [ARL67156, (Dibromo((((((2R,3S,4R,5R)-5-(6-(diethylamino)-9H-purin-9-yl)-3,4-dihydroxytetrahydrofuran-2-yl)methoxy)-(hydroxy)-phosphoryl)oxy)(hydroxy)phosphoryl)methyl)-phosphonic Acid, reference compound], the half-life at 1 μM [1] is reported as less than 1 min, the Ki (NTPDase3) is reported as 7.94 ± 1.36 µM and the inhibition at 10 µM (NPP4) is reported as -1%. It also gave a Ki (NPP4) greater than 10 µM.
